Here are results for four compounds from ChEMBL document CHEMBL1126367, “The discovery of a novel calcium channel blocker related to the structure of potassium channel opener cromakalim” (Bioorg Med Chem Lett, 1992).

The subject of assay [1] is Rattus norvegicus. Description: Compound was evaluated for the antihypertensive activity at a dose of 45 umol/kg given orally; No significant effect on blood pressure. Type of assay: functional, organism-based.
The species named for assay [2] is Rattus norvegicus. As to the kind of experiment: Vasorelaxant potency by relaxation of the methoxamine contracted rat aorta. The format is functional.
Assay [3] concerns Rattus norvegicus. As to the kind of experiment: The compound was evaluated for the antihypertensive activity at a dose of 45 umol/kg given orally. Type of assay: functional.
For assay [4], the system named is Rattus norvegicus. Description: The compound was evaluated for the antihypertensive activity at a dose of 45 umol/kg given orally. Type of assay: functional.
The species named for assay [5] is Cavia porcellus. Description: Percent inhibition of inward calcium current by 100 uM of the compound. Type of assay: functional. Further details: scale not given: the % may be the effect or the level left; call rule not given here.
The species named for assay [6] is Cavia porcellus. As to the kind of experiment: Percent inhibition of inward calcium current by 50 uM of the compound. Set-up: scale not given: the % may be the effect or the level left. Type of assay: functional.
For assay [7], the species on record is Cavia porcellus. Description: Percent inhibition of inward calcium current by 10 uM of the compound. Type of assay: functional. Further details: scale not given: the % may be the effect or the level left.
For assay [8], the system named is Rattus norvegicus. As to the kind of experiment: Compound was evaluated for the antihypertensive activity at a dose of 45 umol/kg given orally; No significant effect on blood pressure. Type of assay: functional, organism-based.

By IC50 is commonly meant the concentration that inhibits the measured activity by half. As for `COc1ccc([C@@H]2Sc3ccccc3N(CCN(C)C)C(=O)[C@@H]2OC(C)=O)cc1` [DILTIAZEM], the IC50 entry in the assay on Rattus norvegicus [1] is “Not Active”; in the assay listed under Rattus norvegicus [2] it was 2380 nM.
With `COC(=O)C1=C(C)NC(C)=C(C(=O)OC)C1c1ccccc1[N+](=O)[O-]` [NIFEDIPINE], in the assay filed under Rattus norvegicus [2], the IC50 came out at 4 nM. This compound came in with an Activity in the assay on Rattus norvegicus [3] of 33%.
In turn, `CC1(C)Oc2ccc(C#N)cc2[C@@H](N2CCCC2=O)[C@@H]1O` [CROMAKALIM] yielded an Activity in the assay on Rattus norvegicus [4] of 63%.
On to `CC1(C)Oc2c(c(=O)n(Cc3ccccc3)c3ccccc23)[C@@H](N2CCCC2=O)[C@@H]1O`, for which the IC50 is 440 nM in the assay filed under Rattus norvegicus [2] and “Not Active” with Rattus norvegicus [8]. Besides, the Activity in the assay listed under Cavia porcellus [5] was 55%; in the assay filed under Cavia porcellus [6] it was 46%; in the assay filed under Cavia porcellus [7], 30%.
